Columns and labels:
GPR30 [1] = target: T1, GPR30 (Mus musculus, UniProt Q8BMP4); assay: inositol phosphate accumulation in MCF-mGPR30 cells; calcium responses lost in Gpr30-null mural cells; type: cell-based
T1 construct: gene Gper1; mGPR30 stably expressed in MCF-7 cells
T1 sequence (Q8BMP4 1-375): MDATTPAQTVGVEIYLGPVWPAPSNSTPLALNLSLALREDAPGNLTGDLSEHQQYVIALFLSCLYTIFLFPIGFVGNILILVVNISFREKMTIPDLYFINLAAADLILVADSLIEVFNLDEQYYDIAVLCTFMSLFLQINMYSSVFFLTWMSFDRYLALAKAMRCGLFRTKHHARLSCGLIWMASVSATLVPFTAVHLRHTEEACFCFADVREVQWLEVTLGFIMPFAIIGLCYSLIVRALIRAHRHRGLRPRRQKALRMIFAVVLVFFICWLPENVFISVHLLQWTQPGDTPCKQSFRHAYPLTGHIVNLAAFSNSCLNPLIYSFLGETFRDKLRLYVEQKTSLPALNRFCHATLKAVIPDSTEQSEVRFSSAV

GPR30 [2] = target: T2, GPR30 (Homo sapiens, UniProt Q99527); assay: scintillation proximity assay with […]C-bicarbonate on membranes; the EC50 is from inositol phosphate accumulation in HEK293 cells; type: cell-based
T2 construct: gene GPER1; hGPR30-HA (C-terminal HA tag), plasma membrane fraction of HEK293 cells
T2 sequence (Q99527 whole entry): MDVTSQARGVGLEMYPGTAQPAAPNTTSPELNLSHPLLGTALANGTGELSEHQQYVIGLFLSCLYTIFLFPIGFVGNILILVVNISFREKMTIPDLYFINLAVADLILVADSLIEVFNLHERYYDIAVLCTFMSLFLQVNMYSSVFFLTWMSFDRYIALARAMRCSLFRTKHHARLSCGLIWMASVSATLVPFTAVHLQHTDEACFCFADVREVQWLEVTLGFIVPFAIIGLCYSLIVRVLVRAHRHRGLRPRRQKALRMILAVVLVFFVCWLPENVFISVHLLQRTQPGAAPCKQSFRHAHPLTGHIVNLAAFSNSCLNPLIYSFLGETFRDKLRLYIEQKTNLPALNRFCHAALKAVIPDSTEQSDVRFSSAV

GPR30 [3] = target: T3, GPR30 (Danio rerio, UniProt B3G515)
T3 construct: gene gper1
T3 sequence (B3G515 whole entry): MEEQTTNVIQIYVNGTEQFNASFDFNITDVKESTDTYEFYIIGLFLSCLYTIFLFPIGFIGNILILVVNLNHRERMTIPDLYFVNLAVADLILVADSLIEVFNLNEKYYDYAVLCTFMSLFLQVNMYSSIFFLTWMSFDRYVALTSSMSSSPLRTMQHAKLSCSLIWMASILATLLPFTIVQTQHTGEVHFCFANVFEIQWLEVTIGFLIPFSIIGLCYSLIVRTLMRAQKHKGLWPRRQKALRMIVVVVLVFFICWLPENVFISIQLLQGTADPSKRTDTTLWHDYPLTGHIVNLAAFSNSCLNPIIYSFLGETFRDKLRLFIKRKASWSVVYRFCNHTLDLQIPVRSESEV

GPR30 [4] = target: T4, GPR30 (Rattus norvegicus, UniProt O08878)
T4 construct: gene Gper1
T4 sequence (O08878 whole entry): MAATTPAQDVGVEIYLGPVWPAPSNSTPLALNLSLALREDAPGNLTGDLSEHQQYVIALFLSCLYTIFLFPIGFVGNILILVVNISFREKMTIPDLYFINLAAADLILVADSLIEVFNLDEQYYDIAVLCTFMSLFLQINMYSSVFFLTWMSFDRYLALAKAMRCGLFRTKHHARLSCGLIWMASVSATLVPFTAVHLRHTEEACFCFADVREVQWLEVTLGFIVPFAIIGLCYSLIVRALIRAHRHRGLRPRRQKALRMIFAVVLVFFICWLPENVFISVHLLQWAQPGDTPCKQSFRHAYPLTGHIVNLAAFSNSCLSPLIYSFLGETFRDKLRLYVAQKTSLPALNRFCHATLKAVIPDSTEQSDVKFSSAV

For `O=C(O)O` [bicarbonate], the EC50 (GPR30 [1]) was 12.2 mM, the EC50 (GPR30 [2]) was 11.4 mM and the “cell-based activation assay of expressed receptor” value (GPR30 [3]) was “Activation of GPR30 by bicarbonate ions was conserved among various species, including rats”. The “cell-based activation assay of expressed receptor” value (GPR30 [4]) was “Activation of GPR30 by bicarbonate ions was conserved among various species, including rats”.

From paper PMC10899177, “Bicarbonate signalling via G protein-coupled receptor regulates ischaemia-reperfusion injury” (Nature Communications, 2024)
